From ChEMBL document CHEMBL3352364 (Bioorg Med Chem Lett, 2014) come the findings set out here.

The species named for data set [1] is Rattus norvegicus. The conditions noted are these: in vivo, ip.
Description: Toxicity in ip dosed Sprague-Dawley rat assessed as catalepsy by crossed-legs position test
For data set [2], the species on record is Rattus norvegicus. The conditions noted are these: in vivo, ip. The source holds these as a separate data set.
Description: Toxicity in ip dosed Sprague-Dawley rat assessed as catalepsy by Bar test

Take `OC1(c2ccc(Cl)cc2)CC2CCC(C1)N2CCCSc1cccc(F)c1` (centres undefined): the MED in the data set listed under Rattus norvegicus [1] and in the data set listed under Rattus norvegicus [2] was 12.7 mg/kg each time.

For `OC1(c2ccc(Cl)cc2)CC2CCC(C1)N2CCCSc1ccc(F)cc1` (centres undefined), the MED came to 0.964 mg/kg in the data set listed under Rattus norvegicus [1] and 0.578 mg/kg in the data set filed under Rattus norvegicus [2].
